# Test system: collagen type III alpha I chain (COL3A1) gene
# Assay: Gene expression test: COL3A1 by RT-PCR in normal human dermal fibroblasts
# Format: cell-based
# Details: normal human dermal fibroblasts (NHDF), 48 hours incubation with actives in medium; normalized to ACTB; fold change relative to blank control; actives in wt % of medium
# Method: The normal human dermal fibroblasts (NHDF, Biocell, Xi′an, China, Cat: Fb20081902) were incubated in medium together with or without actives for 48 hours. After incubation, the total RNA for each […] was extracted using RNAex Pro reagent (Accurate Biotechnology, Cat: AG21102) according to manufacturer's protocol.
# The extracted RNA was quantified using Nanodrop 2000 spectrometer (Thermo Fisher Scientific, Waltham, MA, US) and reverse transcribed to generate the template cDNA using the Evo M-MLV RT Premix for qPCR (Accurate Biotechnology, Cat: AG11706) according to manufacturer's protocol. Amplification of the gene encoding collagen type III alpha I chain (COL3A1) gene was performed with RT-PCR reagent (SYBR® Green Premix Pro Taq HS qPCR Kit, Accurate Biotechnology, Cat: AG11701) on the ABI Vii 7 Real-Time PCR Systems (Applied Biosystems, Thermo fisher scientific, Carlsbad, CA, USA). The beta-actin (ACTB) gene was selected as the housekeeping gene and all data on relative expression of the target genes was normalized to ACTB gene. The fold changes in expression were calculated relative to the blank control (medium having no active).
substance,measurement,value
Lysine carboxymethyl cysteinate,Fold change of expression of COL3A1,1.1
